Results: PMC9032718, “Eltrombopag as an Allosteric Inhibitor of the METTL3-14 Complex Affecting the m^6A Methylation of RNA in Acute Myeloid Leukemia Cells” (Pharmaceuticals, 2022)

Assays:
[1] = biological target: T1, METTL3-14 complex (Homo sapiens, UniProt Q86U44); experiment: Mass spectrometry based METTL3-14 enzyme based assay (m^6A level of single strand RNA substrate); format: biochemical; conditions: read-out: IC50, METTL3-14 inhibition, mass spectrometric enzyme based assay
T1 construct: genes encoding the full-length and MTase domain of human METTL3; METTL3-14 FL: full length of METTL3-14; 10x His (thrombin-cleavable) (cleaved yes); made in house; host or cells: Trichoplusia ni (Hi5) cells co-infected with two baculoviruses (virus made in Sf9)
T1 sequence (Q86U44 whole entry, the tested form may be a part): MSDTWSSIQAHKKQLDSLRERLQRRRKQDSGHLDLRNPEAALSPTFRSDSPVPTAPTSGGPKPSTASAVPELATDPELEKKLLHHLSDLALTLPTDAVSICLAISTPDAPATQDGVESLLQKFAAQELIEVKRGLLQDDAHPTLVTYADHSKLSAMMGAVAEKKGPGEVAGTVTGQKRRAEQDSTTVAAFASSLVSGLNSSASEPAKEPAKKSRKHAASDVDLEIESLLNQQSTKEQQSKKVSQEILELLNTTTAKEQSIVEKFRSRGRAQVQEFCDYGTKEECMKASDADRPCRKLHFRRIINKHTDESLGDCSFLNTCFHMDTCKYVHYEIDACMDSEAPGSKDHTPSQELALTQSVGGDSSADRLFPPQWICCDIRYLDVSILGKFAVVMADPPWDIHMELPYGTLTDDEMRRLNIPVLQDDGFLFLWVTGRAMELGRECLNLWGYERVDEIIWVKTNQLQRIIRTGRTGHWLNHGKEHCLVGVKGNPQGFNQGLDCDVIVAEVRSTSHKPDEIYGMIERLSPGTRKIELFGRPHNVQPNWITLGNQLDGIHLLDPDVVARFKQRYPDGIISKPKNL
T1 sequence (Q9HCE5 whole entry partner, the tested form may be a part): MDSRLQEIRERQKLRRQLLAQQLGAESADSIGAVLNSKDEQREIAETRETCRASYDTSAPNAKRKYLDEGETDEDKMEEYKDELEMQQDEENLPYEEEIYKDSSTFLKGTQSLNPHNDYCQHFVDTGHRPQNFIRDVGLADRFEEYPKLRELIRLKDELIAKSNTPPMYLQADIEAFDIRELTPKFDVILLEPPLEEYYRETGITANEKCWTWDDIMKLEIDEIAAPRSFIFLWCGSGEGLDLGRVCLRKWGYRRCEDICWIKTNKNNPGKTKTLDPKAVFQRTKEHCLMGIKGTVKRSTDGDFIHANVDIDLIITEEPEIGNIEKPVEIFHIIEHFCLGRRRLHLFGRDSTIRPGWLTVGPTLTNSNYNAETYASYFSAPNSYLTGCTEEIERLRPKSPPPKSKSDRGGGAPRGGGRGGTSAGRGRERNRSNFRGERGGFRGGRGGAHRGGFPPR
Procedure: The 30 nM of METTL3-14 was incubated with 300 nM of SAM, 300 nM of RNA substrates, and serially diluted compounds at 23 °C for 1 h as described above. The enzymatic reaction was stopped by heating at 80 °C for 10 min and centrifuged at 15,000× g for 10 min. Then, the reacted RNA in the supernatant was digested to nucleosides by using 2 units of nuclease P1 (NEB, Ipswich, MA, USA) and dephosphorylated by using 1 unit of alkaline phosphatase (NEB) at 37 °C for 2 h.
The produced nucleosides were detected by reversed-phase high-performance liquid chromatography on an ACQUITY BEH C18 column ([…], 2.1 mm × 50 mm; Waters) coupled with mass spectrometry detection using an EVOQ Elite ER LC-TQ (Bruker, Billerica, MA, USA). The adenosine and m^6A were quantified using an MRM transition as follows: m/z = 267.9 -> 136.1 and m/z = 282.1 -> 150.1, respectively. (Retention time 5 min). The m^6A/A nucleoside ratio of the eltrombopag-treated sample was normalized to the corresponding value of the DMSO treated negative control. The IC50 values were calculated by a nonlinear regression analysis using OriginPro 9.1 software (OriginLab).

[2] = biological target: T1, METTL3-14 complex; experiment: Surface plasmon resonance binding to METTL3-14; conditions: SPR
Procedure: The interaction between eltrombopag and the METTL3-14 complex was explored using a Reichert […] instrument optical biosensor (Reichert Technologies, Depew, NY, USA) equipped with a carboxymethyl dextran sensor chip (part no. 13206066, Reichert Technologies). To activate the sensor chip, free carboxyl groups on the surface were modified by injecting a mixture of 0.1 M of 1-ethyl-3-(3-dimethylaminopropyl) carbodiimide hydrochloride and 0.05 M of N-hydroxysuccinimide at a flow rate of 10 μL/min to generate a reactive succinimide ester surface. […] The binding experiments were performed using a flow rate of 30 μL/min with an association time of 5 min and a dissociation time of 7 min. The regeneration of the surfaces was performed, when necessary, by 10 mM of NaOH. The Langmuir model of the Scrubber2 software was used to determine the equilibrium dissociation constant and kinetic dissociation and association constants.

[3] = biological target: T2, G9a (Homo sapiens, UniProt Q96KQ7); experiment: Methyltransferase selectivity panel (MT HotSpot radioisotope assay), G9a; format: biochemical; conditions: 10 μM eltrombopag
T2 construct: purchased Reaction Biology (Malvern, PA, USA), contract assay
T2 sequence (Q96KQ7 1-1210): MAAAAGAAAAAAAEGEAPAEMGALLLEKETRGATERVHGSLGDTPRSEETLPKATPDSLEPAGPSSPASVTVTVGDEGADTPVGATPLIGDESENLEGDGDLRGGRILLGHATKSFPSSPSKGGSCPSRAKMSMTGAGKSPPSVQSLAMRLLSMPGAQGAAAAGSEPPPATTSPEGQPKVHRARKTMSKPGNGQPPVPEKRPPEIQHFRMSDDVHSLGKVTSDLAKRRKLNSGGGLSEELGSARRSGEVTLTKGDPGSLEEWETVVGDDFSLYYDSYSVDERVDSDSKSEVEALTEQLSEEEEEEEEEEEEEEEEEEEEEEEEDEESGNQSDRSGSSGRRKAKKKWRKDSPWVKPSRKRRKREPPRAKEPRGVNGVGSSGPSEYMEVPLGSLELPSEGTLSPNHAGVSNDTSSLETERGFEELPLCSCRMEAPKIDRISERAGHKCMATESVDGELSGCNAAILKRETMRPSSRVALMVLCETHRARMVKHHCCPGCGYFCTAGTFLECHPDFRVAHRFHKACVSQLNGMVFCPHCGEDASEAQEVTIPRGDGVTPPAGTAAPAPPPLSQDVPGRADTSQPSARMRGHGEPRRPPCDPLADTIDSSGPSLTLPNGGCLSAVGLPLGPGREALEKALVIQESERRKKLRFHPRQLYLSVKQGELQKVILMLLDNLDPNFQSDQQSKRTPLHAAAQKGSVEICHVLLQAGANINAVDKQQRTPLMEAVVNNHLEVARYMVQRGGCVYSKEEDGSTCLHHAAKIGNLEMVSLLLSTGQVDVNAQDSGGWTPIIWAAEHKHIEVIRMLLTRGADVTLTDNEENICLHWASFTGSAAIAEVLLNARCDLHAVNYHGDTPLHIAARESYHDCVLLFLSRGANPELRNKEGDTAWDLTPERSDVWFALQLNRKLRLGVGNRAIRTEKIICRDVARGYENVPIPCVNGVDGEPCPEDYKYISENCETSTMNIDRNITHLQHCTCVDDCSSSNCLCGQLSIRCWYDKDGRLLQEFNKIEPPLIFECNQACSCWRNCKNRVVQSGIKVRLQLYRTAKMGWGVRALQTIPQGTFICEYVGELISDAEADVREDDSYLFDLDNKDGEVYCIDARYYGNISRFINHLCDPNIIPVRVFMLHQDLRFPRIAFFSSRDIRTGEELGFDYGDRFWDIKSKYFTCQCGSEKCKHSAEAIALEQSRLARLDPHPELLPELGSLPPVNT
Procedure: (§1) The selectivity profile of eltrombopag was investigated by testing the level of inhibition in a methyltransferase panel. The inhibition of 7 […] methyltransferase was tested at Reaction Biology (Malvern, PA, USA) using a gold standard radioisotope-based MT assay (MT HotSpot^TM) with 10 μM of eltrombopag in duplicate.

[4] = biological target: T3, SMYD3 (Homo sapiens, UniProt Q9H7B4); experiment: Methyltransferase selectivity panel (MT HotSpot radioisotope assay), SMYD3; format: biochemical; conditions: 10 μM eltrombopag, SMYD3
T3 construct: purchased Reaction Biology (Malvern, PA, USA), contract assay
T3 sequence (Q9H7B4 1-428): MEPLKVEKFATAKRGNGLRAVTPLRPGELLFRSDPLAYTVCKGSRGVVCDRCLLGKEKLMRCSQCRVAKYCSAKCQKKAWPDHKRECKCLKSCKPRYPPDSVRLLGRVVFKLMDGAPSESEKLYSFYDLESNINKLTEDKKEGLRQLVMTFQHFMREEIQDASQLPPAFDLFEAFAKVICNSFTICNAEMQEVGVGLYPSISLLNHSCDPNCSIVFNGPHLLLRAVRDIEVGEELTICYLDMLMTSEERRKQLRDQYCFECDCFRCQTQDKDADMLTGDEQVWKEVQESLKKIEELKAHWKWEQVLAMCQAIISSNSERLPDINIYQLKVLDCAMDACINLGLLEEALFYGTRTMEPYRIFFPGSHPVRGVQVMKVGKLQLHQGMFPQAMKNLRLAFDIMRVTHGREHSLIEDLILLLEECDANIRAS
Procedure: as §1

[5] = tested on: AML cell line transplanted mouse; set-up: method as in PMID 22627766; conditions: mouse model transplanted with an AML cell line; cited from earlier work

CC1=NN(c2ccc(C)c(C)c2)C(=O)/C1=N\Nc1cccc(-c2cccc(C(=O)O)c2)c1O [Eltrombopag]
IC50 [1]: 4.55 µM
Ka (kinetic association constant) [2]: 492(4)
Kd ([2]; Langmuir model, read-out: KD (equilibrium dissociation constant)): 13.2 µM
remaining activity at 10 µM [3]: 99 ± 3.3%
remaining activity at 10 µM [4]: 98.7 ± 5.7%
in-vivo anti-leukemic effect (survival) [5]: prolonging the survival
